Experimental data taken from patent publication US20250296961A1, “ANTIMICROBIAL PEPTIDES FOR REMINERALIZATION OF TEETH AND PREVENTION OF DENTAL CARIES” (The University of Hong Kong, priority 2021, published 2025).
Read-outs that look alike come from different tables or passages of the source. Residues, ends and D or L forms follow the SMILES beside them. No end group written: not given here.

Tests used:
[1] = tested on: S. mutans; parameters: species or system Sprague-Dawley rats; conditions: rat, in vivo
Protocol: The rat caries model was conducted under the protocol approved by the Ethics Committee of Anhui Medical University, China (ref. no. LLSC20232002) in accordance with national and international guidelines to minimise animal suffering. Ten male specific pathogen-free Sprague-Dawley rats aged 6 weeks were selected. The rats were provided with appropriate antibiotics (ampicillin, chloramphenicol, and carbencillin 1.0 g/kg/day) in the drinking water for 3 days. […] The infection was confirmed by oral swabbing and culturing on mitis salivarius-bacitracin (MSB) agar plates. The infected animals were randomly assigned into two groups (N=10): 16 μM mL^−1 of 8DSS-C8-P-113 in 10 mM HEPES (pH=7, n=5) and 10 mM HEPES (n=5, control group). Animals in each group were treated with 150 μL of the respective treatment topically using dental bonding brush for 2 min once daily for 4 weeks. […] The severity of caries was evaluated by the Keyes' scoring system which categorizes caries as enamel only (E), dentin exposed ¼ to ¾ (Ds), or more than ¾ dentin affected (Dm). The rats' weights were recorded to monitor for signs of toxicity. Additionally, various tissues from gingiva, palate, heart, liver, spleen, lung, and kidney were collected, stained with hematoxylin and eosin (H&E), and histopathologically analysed.

[2] = in vitro; conditions: human, human saliva (centrifuged, filtered supernatant)
Protocol: (§1) The collected saliva samples were centrifuged at 12,000 rpm for 20 min^21]. The supernatant was filtered to remove any debris. […] At 0, 0.5, 1, 2, 4, and 6 h, 40 uL solutions were taken from each sample and were analysed by High Performance Liquid Chromatography (HPLC-UV, 1525 Binary HPLC Pump, 2489 UV/Visible Detector, Waters, USA).

[3] = for Peptide concentration incubated in human saliva: 37° C.; for Stability: summary grade
Protocol: as §1

[4] = tested on: MC3T3-E1 cells
Protocol: (§2) Cells exposed to α-MEM without peptide was the control group. Cells viability after peptide exposure was evaluated by cell survival rate using Cell Counting Kit-8 assay (CCK-8 assay, Sigma-Aldrich, St. Louis, USA).

[5] = Stability of 8DSS-C8-P-113 hydrogel on tooth surface in flow water (BCA); format: physicochemical; conditions: 16 μM mL^−1, flow water 30 mL h-1, 2 h
Protocol: 20 μL of 16 μM mL^−1 solution of 8DSS-C8-P-113 was applied to the tooth surface (N=5), and self-formed a layer of hydrogel sticking to the bottom of a hand-made instrument (FIG. 2J). To simulate the average human salivary flow rate, a stable flow of deionized water at a rate of 30 mL h-1 was provided using a Syringe Pump (LSP02-1B Double Channel inject/extract, China). The drained liquid, approximately 15 mL, was collected every 30 min. A sample of 100 μL of 16 μM mL^−1 solution of 8DSS-C8-P-113 was added to 15 mL of deionized water to serve as the 0 min sample. After 2 h, the drained liquids collected at 30 min, 60 min, 90 min, and 120 min were tested for their concentrations using Pierce BCA Protein Assay Kit (Rockford, IL).

[6] = in vitro; conditions: mouse, MC3T3-E1 cells
Protocol: as §2

Row | Compound | Histopathology analysis (H&E) [1] | remaining at 6 h, 1 mg mL^−1 [2] | Peptide concentration incubated in human saliva ([3]; 0 h) | Peptide concentration incubated in human saliva ([3]; 0.5 h) | Peptide concentration incubated in human saliva ([3]; 1 h) | Peptide concentration incubated in human saliva ([3]; 2 h) | Peptide concentration incubated in human saliva ([3]; 4 h) | Peptide concentration incubated in human saliva ([3]; 6 h) | Stability [3] | Cytocompatibility [4] | Hydrogel remaining on the tooth surface (of initial status) [5] | Hydrogel remaining on the tooth surface (of initial status) ([5]; listed as 8DSS-C8-P-113 hydrogel) | viability at 24 h, 2 ×MBC [6]
1 | DSSDSSDSSDSSDSSDSSDSSDSSTFFRLFNRAKRHHGYKRKFH [8DSS-C8-P-113] | No signs of inflammatory reaction, proliferative changes, or necrosis | 89.4% | 1 mg/mL | 0.9942 mg/mL | 0.987 mg/mL | 0.9885 mg/mL | 0.8991 mg/mL | 0.894 mg/mL | +++ | ++ | over 80% | approximately 82.15% | –
2 | CC(C)C[C@H](NC(=O)[C@H](CCCNC(=N)N)NC(=O)[C@H](Cc1ccccc1)NC(=O)[C@H](Cc1ccccc1)NC(=O)[C@@H](NC(=O)[C@H](COP(=O)(O)O)NC(=O)[C@@H](N)COP(=O)(O)O)[C@@H](C)O)C(=O)N[C@@H](Cc1ccccc1)C(=O)N[C@@H](CC(N)=O)C(=O)N[C@@H](CCCNC(=N)N)C(=O)N[C@@H](C)C(=O)N[C@@H](CCCCN)C(=O)N[C@@H](CCCNC(=N)N)C(=O)N[C@@H](Cc1c[nH]cn1)C(=O)N[C@@H](Cc1c[nH]cn1)C(=O)NCC(=O)N[C@@H](Cc1ccc(O)cc1)C(=O)N[C@@H](CCCCN)C(=O)N[C@@H](CCCNC(=N)N)C(=O)N[C@@H](CCCCN)C(=O)N[C@@H](Cc1ccccc1)C(=O)N[C@@H](Cc1c[nH]cn1)C(=O)O [DPS-C8-P-113] (HELM PEPTIDE1{[N[C@@H](COP(=O)(O)O)C(=O)[*:2]].[O=C([C@H](COP(=O)(O)O)N[*:1])[*:2]].T.F.F.R.L.F.N.R.A.K.R.H.H.G.Y.K.R.K.F.H}$$$$V2.0) | – | 56.2% | 1 mg/mL | 0.9818 mg/mL | 0.9785 mg/mL | 0.9504 mg/mL | 0.5388 mg/mL | 0.562 mg/mL | ++ | + | – | – | 48%
